The target of one test is cyclophilin A (Homo sapiens (Human), UniProt P62937). Nature of the test: Functional peptidyl prolyl isomerase (PPIase) spectrophotometric assay, cyclophilin A. Type of test: biochemical. Conditions: first value of CypA/D cell. From the text: (§1) Cyclophilins are enzymes that catalyse the cis-trans isomerisation of peptide bonds to the amino acid proline. This event is important in many biological processes, including protein folding and signal transduction. […] The method to measure this activity and its inhibition is similar to that described by Jankowski (Analytical Biochemistry, 252, 2, 299-307 (1997)). The assay measures the cis to trans isomerisation of a peptide substrate catalysed by a PPlase enzyme using a UV/Vis spectrophotometer. This assay is a manual single cuvette-based assay. A first order rate equation is fitted to the absorbance data to obtain a rate constant. The catalytic rate is calculated from the enzymatic rate minus the background rate. The Ki (the concentration required to produce half maximum inhibition) for an inhibitor is obtained from the rate constant plotted against the inhibitor concentration. Typically, a 6-point dose response curve is obtained from duplicates and a Ki determined. Data are given in Table 5 as Ki [nM] for cyclophilins A and D, expressed in column 2 of Table 5 as Ki (cypA)/Ki (cypD).
cyclophilin A, sequence (P62937 whole entry, species assumed): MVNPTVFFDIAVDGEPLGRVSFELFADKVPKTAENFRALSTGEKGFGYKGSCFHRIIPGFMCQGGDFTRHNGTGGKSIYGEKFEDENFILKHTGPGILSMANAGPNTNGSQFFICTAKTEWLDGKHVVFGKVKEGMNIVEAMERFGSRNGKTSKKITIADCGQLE

Another test deals with cyclophilin D (Homo sapiens (Human), UniProt P30405). Nature of the test: Functional peptidyl prolyl isomerase (PPIase) spectrophotometric assay, cyclophilin D. In kind it is biochemical. The following applies: second value of CypA/D cell; read-out: Ki CypD.
cyclophilin D, sequence (P30405 30-207, species assumed): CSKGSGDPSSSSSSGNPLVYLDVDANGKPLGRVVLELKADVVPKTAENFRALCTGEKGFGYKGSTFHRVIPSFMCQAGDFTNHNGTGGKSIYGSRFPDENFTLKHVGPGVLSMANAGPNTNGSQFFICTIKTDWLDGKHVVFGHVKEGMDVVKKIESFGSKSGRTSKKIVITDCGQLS
Source text: as §1

The subject of test [1] is permeabilised HepG2 cells. Nature of the test: Calcium retention capacity (CRC) assay in permeabilised HepG2 cells (MPTP opening). In kind it is cell-based, human. More on the design: CRC [10 μM]: unit not given here. Conditions: compound at 10 μM; for CRC [10 μM]: digitonin permeabilised HepG2 cells; for CRC [10 μM] (ratio vs CsA): normalised to cyclosporin A, value in brackets. How it is done: The use of permeabilised cells means that inhibitory compounds that may not normally enter non-permeabilised cells are more likely to be active.
The calcium retention capacity (CRC) is a measure of the capability of mitochondria to retain calcium, primarily in the form of calcium phosphates, in the mitochondrial matrix.
In a CRC assay, the calcium indicator Calcium Green-5N (InVitrogen) is utilized. […] The assay is carried out in HepG2 (human hepatocellular carcinoma) cells which are digitonin permeabilized. Trains of calcium pulses (typically 5 μM additions) are added which results in a sudden increase in fluorescence which is then reduced by mitochondrial buffering. The cells will reach a point at which the calcium addition is no longer buffered, an indication that the MPTP has opened (mitochondrial permeability transition).
The experiment is performed with and without inhibitor. A compound that acts to inhibit the mitochondrial pore opening will result in a greater requirement for calcium to reach the transition point. The results are normalised to a positive control (cyclosporin A) in each experiment. The results are shown in column 3 of Table 5 as CRC [10 μM] (ratio vs CsA). The method of digitonin permeabilised whole cell CRC assay is similar to that used by Chiara et al. (PLoS One, March, 3, 3, e1852 (2008)).

Each structure is given as a SMILES string. Some results are limits rather than exact numbers.

For `C[C@@H]1NC(=O)[C@@H](CC2CCCNC2)OC(=O)C(C)(C)/C=C/c2ccc3ccc(nc3c2)N(C)N(C)C(=O)[C@@H]2CCCN(N2)C1=O` (single isomer, unassigned) [Compound (32)], the results for the Ki at cyclophilin A and on cyclophilin D were 2200 nM and 4900 nM, respectively. In addition, the “CRC [10 μM]” value in test [1] was determined as 5. The “CRC [10 μM] (ratio vs CsA)” value in test [1] (listed as 32) is recorded as 0.20.

Take `CC(C)[C@H]1OC(=O)C(C)(C)/C=C/c2ccc3ccc(nc3c2)N(C)NC(=O)[C@@H]2CCCN(N2)C(=O)[C@H](C)NC1=O` [Compound (3)]: the values for the Ki on cyclophilin A and on cyclophilin D were 550 nM and 1300 nM, respectively. For the same compound, the “CRC [10 μM] (ratio vs CsA)” value in test [1] stood at 0.5.

Turning to `CC(C)[C@@H]1OC(=O)C(C)(C)/C=C/c2ccc3ncc(nc3c2)N(C)NC(=O)[C@@H]2CCCN(N2)C(=O)[C@H](C)NC1=O` [Compound (4)], the Ki – broadly, a dissociation constant, usually derived from enzyme kinetics or from competition with a known ligand – was 3.3 nM at cyclophilin A and 13 nM at cyclophilin D. The “CRC [10 μM]” value in test [1] amounted to 16.4.

With `CC(C)[C@@H]1OC(=O)C(C)(C)CCc2ccc3ccc(nc3c2)N(C)NC(=O)[C@@H]2CCCN(N2)C(=O)[C@H](C)NC1=O` [Compound (5)], the Ki was greater than 10000 nM on cyclophilin A and greater than 10 nM at cyclophilin D.

Turning to `CC(C)[C@@H]1OC(=O)C(C)(C)/C=C/c2ccc3ccc(nc3c2)N(CCCO)NC(=O)[C@@H]2CCCN(N2)C(=O)[C@H](C)NC1=O` [Compound (7)], the Ki was found to be 36.7 nM at cyclophilin A and 8.1 nM on cyclophilin D.

In the case of `CC(C)[C@@H]1OC(=O)C(C)(C)/C=C/c2ccc3ccc(nc3c2)N2CCCN2C(=O)[C@@H]2CCCN(N2)C(=O)[C@H](C)NC1=O` [Compound (8)], the values for the Ki on cyclophilin A and at cyclophilin D were 13.9 nM and 15 nM, respectively.

With `CC(=O)N1NC(=O)[C@@H]2CCCN(N2)C(=O)[C@H](C)NC(=O)[C@H](C(C)C)OC(=O)C(C)(C)/C=C/c2ccc3ccc1nc3c2` [Compound (10)], the Ki is 5.3 nM at cyclophilin A and 8.7 nM at cyclophilin D.

Regarding `C[C@@H]1NC(=O)[C@H](Cc2ccc(C(=O)O)cc2)OC(=O)C(C)(C)/C=C/c2ccc3ccc(nc3c2)N(C)N(C)C(=O)[C@@H]2CCCN(N2)C1=O` [Compound (11)], the affinity at cyclophilin A corresponds to a Ki of 280 nM. For the same compound, the Ki at cyclophilin D is 83 nM. In addition, in test [1], the “CRC [10 μM]” value was 20 and the “CRC [10 μM] (ratio vs CsA)” value was 0.80.

On to `CC(C)C(=O)N1CCC2(/C=C/c3ccc4ccc(nc4c3)N(C)NC(=O)[C@@H]3CCCN(N3)C(=O)[C@H](C)NC(=O)[C@H](C(C)C)OC2=O)CC1` [Compound (15)], for which the Ki at cyclophilin A is 1.7 nM; at cyclophilin D it was 9.9 nM. Besides, in test [1], the “CRC [10 μM]” value came out at 38. In addition, the “CRC [10 μM] (ratio vs CsA)” value in test [1] turned out to be 1.

`CC(C)[C@@H]1OC(=O)C2(/C=C/c3ccc4ccc(nc4c3)N(C)NC(=O)[C@@H]3CCCN(N3)C(=O)[C@H](C)NC1=O)COCOC2` [Compound (18)]: the Ki on cyclophilin A stood at 260 nM. Also, at cyclophilin D, the Ki was 370 nM. Further, in test [1], the “CRC [10 μM]” value was 10 and the “CRC [10 μM] (ratio vs CsA)” value is 0.33.

At cyclophilin A, `CC(C)[C@@H]1NCC(C)(C)/C=C/c2ccc3ccc(nc3c2)N(C)NC(=O)[C@@H]2CCCN(N2)C(=O)[C@H](C)NC1=O` [Compound (20)] had a Ki of 100 nM. At cyclophilin D, the Ki was 140 nM. Also, in test [1], the “CRC [10 μM]” value was determined as 22.5 and the “CRC [10 μM] (ratio vs CsA)” value is given as 0.57.

Compound `CC(C)[C@H]1C(=O)N[C@@H](C)C(=O)N2CCC[C@H](N2)C(=O)NN(C)c2ccc3ccc(cc3n2)/C=C/C(C)(C)CN1C` [Compound (23)] had a Ki on cyclophilin A of 92 nM. Also, the Ki at cyclophilin D was 260 nM. In test [1], the “CRC [10 μM]” value was determined as 12.5 and the “CRC [10 μM] (ratio vs CsA)” value was found to be 0.38.

For `C[C@@H]1NC(=O)[C@H](C2CCCC2)CC(=O)C(C)(C)/C=C/c2ccc3ccc(nc3c2)N(C)NC(=O)[C@@H]2CCCN(N2)C1=O` [Compound (24)], the values for the Ki at cyclophilin A and on cyclophilin D were 19 nM and 12 nM, respectively.

The compound `C[C@@H]1NC(=O)[C@@H](CC2CCCN(C)C2)OC(=O)C(C)(C)/C=C/c2ccc3ccc(nc3c2)N(C)NC(=O)[C@@H]2CCCN(N2)C1=O` (stereo partly shown) [Compound (28)] returned a Ki at cyclophilin A of 5900 nM. Further, in test [1], the “CRC [10 μM]” value is given as 5 and the “CRC [10 μM] (ratio vs CsA)” value came to 0.17.

Regarding `CC(=O)N1CCC[C@@H](C[C@@H]2OC(=O)C(C)(C)/C=C/c3ccc4ccc(nc4c3)N(C)NC(=O)[C@@H]3CCCN(N3)C(=O)[C@H](C)NC2=O)C1` [Compound (29)], the Ki was determined as 51 nM on cyclophilin A and 170 nM on cyclophilin D. Further, the “CRC [10 μM]” value in test [1] came to 20. The “CRC [10 μM] (ratio vs CsA)” value in test [1] is reported as 0.67.

Compound `C[C@@H]1NC(=O)[C@H](Cc2ccc(O)cc2)OC(=O)C(C)(C)/C=C/c2ccc3ccc(nc3c2)N(C)NC(=O)[C@@H]2CCCN(N2)C1=O` [Compound (42)] displayed a Ki at cyclophilin A of 1.2 nM. In addition, at cyclophilin D, the Ki is 5.8 nM. Moreover, in test [1], the “CRC [10 μM]” value was 25 and the “CRC [10 μM] (ratio vs CsA)” value amounted to 0.8.

For the compound `C[C@@H]1NC(=O)[C@H](CN2CCCCC2)OC(=O)C(C)(C)/C=C/c2ccc3ccc(nc3c2)N(C)NC(=O)[C@@H]2CCCN(N2)C1=O` [Compound (44)], the Ki on cyclophilin A was 590 nM. The Ki at cyclophilin D came to 140 nM. In test [1], the “CRC [10 μM]” value was found to be 5 and the “CRC [10 μM] (ratio vs CsA)” value came to 0.33.

With `CC(C)C(=O)N1CCN(C[C@@H]2OC(=O)C(C)(C)/C=C/c3ccc4ccc(nc4c3)N(C)NC(=O)[C@@H]3CCCN(N3)C(=O)[C@H](C)NC2=O)C[C@@H]1C` [Compound (45)], the Ki on cyclophilin A worked out at 61 nM; at cyclophilin D it was 140 nM. For the same compound, the “CRC [10 μM]” value in test [1] is recorded as 15. Further, the “CRC [10 μM] (ratio vs CsA)” value in test [1] amounted to 0.60.

As to `CC(C)NC(=O)c1ccc(C[C@@H]2OC(=O)C(C)(C)/C=C/c3ccc4ccc(nc4c3)N(C)NC(=O)[C@@H]3CCCN(N3)C(=O)[C@H](C)NC2=O)cc1` [Compound (47)], the Ki turned out to be 27 nM on cyclophilin A and 21 nM on cyclophilin D. The “CRC [10 μM]” value in test [1] was 17.5. Also, the “CRC [10 μM] (ratio vs CsA)” value in test [1] is given as 1.00.

In turn, `C[C@@H]1NC(=O)[C@H](CC2CCNCC2)OC(=O)C(C)(C)/C=C/c2ccc3ccc(nc3c2)N(C)NC(=O)[C@@H]2CCCN(N2)C1=O` [Compound (58)] displayed a Ki on cyclophilin A of 80 nM. Also, at cyclophilin D, the Ki was found to be 54.5 nM. For the same compound, in test [1], the “CRC [10 μM]” value was 8.3 and the “CRC [10 μM] (ratio vs CsA)” value is reported as 0.38.

Turning to `CC(C)[C@@H]1OC(=O)C(C)(C)/C=C/c2ccc3ccc(nc3c2)N(C)NC(=O)[C@@H]2CCCN(N2)C(=O)[C@H](CCC(=O)O)NC1=O` [Compound (62)], the Ki at cyclophilin A worked out at 5.6 nM; at cyclophilin D, 9.6 nM.

In the case of `CC(C)[C@@H]1OC(=O)C(C)(C)/C=C/c2ccc3ccc(nc3c2)N(C)NC(=O)[C@@H]2CCCN(N2)C(=O)[C@@H](Cc2ccccc2)NC1=O` [Compound (77)], the Ki on cyclophilin D was 700 nM. For the same compound, in test [1], the “CRC [10 μM]” value was 15 and the “CRC [10 μM] (ratio vs CsA)” value is on record as 0.39.

As to `CC(C)[C@@H]1OC(=O)C(C)(C)/C=C/c2ccc3ccc(nc3c2)N(C)NC(=O)[C@@H]2CCCN(N2)C(=O)[C@H](Cc2ccncc2)NC1=O` [Compound (78)], at cyclophilin D, the Ki worked out at 360 nM. Besides, the “CRC [10 μM]” value in test [1] is >10,000.

In the case of `CC(C)[C@H]1CC(=O)C(C)(C)/C=C/c2ccc3ccc(nc3c2)N(C)NC(=O)[C@@H]2CCCN(N2)C(=O)[C@H](C)NC1=O` [Compound (82)], the Ki at cyclophilin A was 320 nM; at cyclophilin D, 150 nM.

These data come from patent US20250243219A1, “MACROCYCLIC COMPOUNDS AND USES THEREOF” (Cypralis Limited, priority 2022, published 2025).
